Measured values reported in US20080176857A1, “4-Piperazinnylthieno[2,3-d]Pyrimidine Compounds as Platelet Aggregation Inhibitors” (priority 2005, published 2008).
Values joined by “and” are separate entries in the source; they are usually repeats but may differ in a detail not shown here. Identical values can stand only once.

Biological target: P2Y12 receptor (Homo sapiens, UniProt Q9H244)
Assay: [33P]-2MeS-ADP binding to recombinant human P2Y12 membranes (Assay 3)
Set-up: expressed in transfected cells; host or cells: HEK cells
Details: for IC50 / Ki: HEK cell membranes expressing human P2Y12, competition with 33P 2MeS-ADP; for inhibition at 10 µM / % Inhibition: 10 μM
Outline: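 Membranes from HEK cells transfected with human P2Y12, used in competitive binding against [33P]-2MeS-ADP in Tris/NaCl/EDTA buffer with 0.02% BSA. Seven-point 3-fold dilutions from 10 μM final, 1 h at room temperature, then filtration and scintillation counting. IC50 from four-parameter fit with Hill slope fixed at one, plate controls defining min/max.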

[1] = at highest concentration tested

P2Y12 receptor, sequence (Q9H244 whole entry): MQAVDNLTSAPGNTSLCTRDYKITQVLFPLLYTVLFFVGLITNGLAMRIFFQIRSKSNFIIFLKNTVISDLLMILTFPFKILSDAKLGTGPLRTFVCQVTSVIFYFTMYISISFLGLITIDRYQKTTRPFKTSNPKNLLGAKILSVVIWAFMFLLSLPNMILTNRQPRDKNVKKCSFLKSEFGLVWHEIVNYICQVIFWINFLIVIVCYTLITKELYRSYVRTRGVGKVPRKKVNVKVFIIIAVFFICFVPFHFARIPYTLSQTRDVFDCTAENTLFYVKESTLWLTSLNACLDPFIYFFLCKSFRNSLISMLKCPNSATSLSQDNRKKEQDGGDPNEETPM

Row | IC50 | Ki | inhibition at 10 µM [1] [%] | inhibition at 1 µM (at highest concentration tested, 1 μM) [%] | % Inhibition [1] | SMILES
1 | 6420 nM | 3880 nM | 96.4 | – | – | CCc1cc2c(N3CCN(C(=O)c4c(-c5ccc(OC)cc5)noc4C)CC3)nc(SCC(=O)OC)nc2s1 [Example 68, Methyl {[6-ethyl-4-(4-{[3-(4-methoxyphenyl)-5-methylisoxazol-4-yl]carbonyl}piperazin-1-yl)thieno[2,3-d]pyrimidin-2-yl]thio}acetate]
2 | 87.8 nM | 53 nM | 56.8 | – | – | CCc1cc2c(N3CCN(C(=O)c4csc(-c5ccccc5)n4)CC3)nc(SCC(=O)OC)nc2s1 [Example 69, Methyl [(6-ethyl-4-{4-[(2-phenyl-1,3-thiazol-4-yl)carbonyl]piperazin-1-yl}thieno[2,3-d]pyrimidin-2-yl)thio]acetate]
3 | 144 nM | 89 nM | 82.1 | – | – | CCc1cc2c(N3CCN(C(=O)c4nnc(-c5ccccc5)o4)CC3)nc(SCC(=O)OC)nc2s1 [Example 70, Methyl [(6-ethyl-4-{4-[(5-phenyl-1,3,4-oxadiazol-2-yl)carbonyl]piperazin-1-yl}thieno[2,3-d]pyrimidin-2-yl)thio]acetate]
4 | 289 nM | 179 nM | 89.3 | – | – | CCCOc1ccc(C(=O)N2CCN(c3nc(SCC(=O)OC)nc4sc(CC)cc34)CC2)cc1 [Example 71, Methyl ({6-ethyl-4-[4-(4-propoxybenzoyl)piperazin-1-yl]thieno[2,3-d]pyrimidin-2-yl}thio)acetate]
5 | 681 nM | 423 nM | 88.7 | – | – | CCc1cc2c(N3CCN(C(=O)c4cc(N(C)C)nc(N(C)C)n4)CC3)nc(SCC(=O)OC)nc2s1 [Example 72, Methyl {[4-(4-{[2,6-bis(dimethylamino)pyrimidin-4-yl]carbonyl}piperazin-1-yl)-6-ethylthieno[2,3-d]pyrimidin-2-yl]thio}acetate]
6 | 5740 nM | 3690 nM | 59 | – | – | CCc1cc2c(N3CCN(C(=O)c4cccc(N(C)C)c4)CC3)nc(SCC(=O)OC)nc2s1 [Example 74, Methyl [(4-{4-[3-(dimethylamino)benzoyl]piperazin-1-yl}-6-ethylthieno[2,3-d]pyrimidin-2-yl)thio]acetate]
7 | 3500 nM | 2250 nM | 70.5 | – | – | CCc1cc2c(N3CCN(C(=O)c4cccc(OC)c4)CC3)nc(SCC(=O)OC)nc2s1 [Example 75, Methyl ({6-ethyl-4-[4-(3-methoxybenzoyl)piperazin-1-yl]thieno[2,3-d]pyrimidin-2-yl}thio)acetate]
8 | 1170 nM | 730 nM | 75.9 | – | – | CCOc1cccc(C(=O)N2CCN(c3nc(SCC(=O)OC)nc4sc(CC)cc34)CC2)c1 [Example 76, Methyl ({4-[4-(3-ethoxybenzoyl)piperazin-1-yl]-6-ethylthieno[2,3-d]pyrimidin-2-yl}thio)acetate]
9 | 4850 nM | 2810 nM | 63.4 | – | – | CCc1cc2c(N3CCN(C(=O)c4ccc5nccnc5c4)CC3)nc(SCC(=O)OC)nc2s1 [Example 77, Methyl ({6-ethyl-4-[4-(quinoxalin-6-ylcarbonyl)piperazin-1-yl]thieno[2,3-d]pyrimidin-2-yl}thio)acetate]
10 | 35 nM and 20 nM and 69 nM | 20 nM and 10 nM and 40 nM | 92.6 | 94 | 87.73% | CCc1cc2c(N3CCN(C(=O)c4cccc(-c5ccccc5)c4)CC3)nc(SCC(=O)OC)nc2s1 [Example 78, Methyl ({4-[4-(1,1′-biphenyl-3-ylcarbonyl)piperazin-1-yl]-6-ethylthieno[2,3-d]pyrimidin-2-yl}thio)acetate]
11 | 8700 nM | 5050 nM | 47.7 | – | – | CCc1cc2c(N3CCN(C(=O)c4ccc(C(N)=O)cc4)CC3)nc(SCC(=O)OC)nc2s1 [Example 79, Methyl [(4-{4-[4-(aminocarbonyl)benzoyl]piperazin-1-yl}-6-ethylthieno[2,3-d]pyrimidin-2-yl)thio]acetate]
12 | 3780 nM | 2450 nM | 60 | – | – | CCc1cc2c(N3CCN(C(=O)c4ccc(C(=O)OC)cc4)CC3)nc(SCC(=O)OC)nc2s1 [Example 80, Methyl 4-[(4-{6-ethyl-2-[(2-methoxy-2-oxoethyl)thio]thieno[2,3-d]pyrimidin-4-yl}piperazin-1-yl)carbonyl]benzoate]
13 | 1720 nM | 1070 nM | 76.7 | – | – | CCc1cc2c(N3CCN(C(=O)c4csc(-c5cccnc5)n4)CC3)nc(SCC(=O)OC)nc2s1 [Example 81, Methyl [(6-ethyl-4-{4-[(2-pyridin-3-yl-1,3-thiazol-4-yl)carbonyl]piperazin-1-yl}thieno[2,3-d]pyrimidin-2-yl)thio]acetate]
14 | 390 nM and 1170 nM and 220 nM and 270 nM and 400 nM | 212 nM and 667 nM and 120 nM and 150 nM and 230 nM | 92.7 | – | 86.00% and 93.95% and 94.10% and 89.55% | CCc1cc2c(N3CCN(C(=O)Cc4ccccc4)CC3)nc(SCCC(=O)OC)nc2s1 [Example 82, methyl 3-({6-ethyl-4-[4-(phenylacetyl)piperazin-1-yl]thieno[2,3-d]pyrimidin-2-yl}thio)propanoate]
15 | 230 nM and 940 nM and 430 nM and 470 nM | 127 nM and 540 nM and 240 nM and 270 nM | 92 | – | 90.75% and 91.85% and 86.17% | CCc1cc2c(N3CCN(C(=O)Cc4ccccc4)CC3)nc(SCC(=O)O)nc2s1 [Example 83, ({6-ethyl-4-[4-(phenylacetyl)piperazin-1-yl]thieno[2,3-d]pyrimidin-2-yl}thio)acetic acid]
16 | 570 nM and 590 nM and 200 nM and 320 nM | 310 nM and 337 nM and 110 nM and 180 nM | – | – | – | CCc1cc2c(N3CCN(C(=O)Cc4ccccc4)CC3)nc(SCCO)nc2s1 [Example 87, 2-({6-ethyl-4-[4-(phenylacetyl)piperazin-1-yl]thieno[2,3-d]pyrimidin-2-yl}thio)ethanol]
17 | 1680 nM and 1480 nM and 640 nM and 370 nM and 1200 nM | 913 nM and 848 nM and 370 nM and 210 nM and 700 nM | 94.1 | – | 80.30% and 84.54% and 89.14% and 82.41% | CCc1cc2c(N3CCN(C(=O)Cc4ccccc4)CC3)nc(SCCN(C)C)nc2s1 [Example 88, N-[2-({6-ethyl-4-[4-(phenylacetyl)piperazin-1-yl]thieno[2,3-d]pyrimidin-2-yl}thio)ethyl]-N,N-dimethylamine]

Row | SMILES | IC50 | Ki | inhibition at 10 µM [1] [%] | inhibition at 1 µM (at highest concentration tested, 1 μM) [%] | % Inhibition [1]
18 | CCCCOc1ccc(C(=O)N2CCN(c3nc(SCC(=O)OC)nc4sc(CC)cc34)CC2)cc1 [Example 73, Methyl ({4-[4-(4-butoxybenzoyl)piperazin-1-yl]-6-ethylthieno[2,3-d]pyrimidin-2-yl}thio)acetate] | 371 nM | 230 nM | 82 | – | –
19 | CCc1cc2c(N3CCN(C(=O)Cc4ccccc4)CC3)nc(SCCCCO)nc2s1 [Example 84, 4-({6-ethyl-4-[4-(phenylacetyl)piperazin-1-yl]thieno[2,3-d]pyrimidin-2-yl}thio)butan-1-ol] | 580 nM and 1440 nM and 220 nM and 270 nM and 520 nM | 315 nM and 825 nM and 130 nM and 150 nM and 300 nM | – | – | 90.62% and 71.83% and 92.13% and 94.46% and 90.58%
